Where two headings read alike, the source gives them in different places. Non-standard residues stand in square brackets, D forms with d. Residues, ends and D or L forms follow the SMILES beside them. No end group written: not given here.
Columns and labels:
[1] = target: T1, human ECE-1 (Homo sapiens, UniProt P42892); experiment: ECE-1 Assay (ET-1 formed from big ET-1, by Elisa); type: biochemical; details: solubilized membrane fraction of CHO/human ECE-1 cells, 0.1 μM big ET-1, pH 7.0, 1 hour at 37° C.
T1 construct: expressed in transfected cells
T1 sequence (P42892 1-770): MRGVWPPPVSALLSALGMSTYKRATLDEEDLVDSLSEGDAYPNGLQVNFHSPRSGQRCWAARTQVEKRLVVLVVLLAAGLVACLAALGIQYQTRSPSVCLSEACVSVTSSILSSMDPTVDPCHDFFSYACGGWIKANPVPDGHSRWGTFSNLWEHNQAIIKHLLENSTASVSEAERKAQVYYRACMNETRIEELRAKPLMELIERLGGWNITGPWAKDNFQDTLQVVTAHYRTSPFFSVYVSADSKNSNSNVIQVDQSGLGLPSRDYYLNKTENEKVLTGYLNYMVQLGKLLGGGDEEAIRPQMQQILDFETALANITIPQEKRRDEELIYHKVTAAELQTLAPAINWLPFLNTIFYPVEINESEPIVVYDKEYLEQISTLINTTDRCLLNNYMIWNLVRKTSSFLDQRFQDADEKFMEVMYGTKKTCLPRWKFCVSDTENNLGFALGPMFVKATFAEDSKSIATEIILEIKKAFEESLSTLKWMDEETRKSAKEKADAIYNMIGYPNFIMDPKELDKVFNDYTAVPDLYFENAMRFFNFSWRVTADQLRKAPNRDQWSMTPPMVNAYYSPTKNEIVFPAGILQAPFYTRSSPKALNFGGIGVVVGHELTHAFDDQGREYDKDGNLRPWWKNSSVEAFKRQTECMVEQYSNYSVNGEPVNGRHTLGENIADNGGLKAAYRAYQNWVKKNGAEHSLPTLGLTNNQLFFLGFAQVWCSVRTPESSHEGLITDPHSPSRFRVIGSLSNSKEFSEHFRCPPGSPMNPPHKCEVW
Protocol: All cells were grown in a humidified incubator at 37° C. in an atmosphere of 5% CO2/95% air. The membrane fractions from CHO cells were prepared as described in (Cell 1994; (78):473-485). ECE-1 Assay […] The final concentration of DMSO was 1.5%. […] This final mixture was then directly analyzed for the amount of ET-1 by enzyme-linked immunosorbant assay (Elisa).

[2] = test system: ECE; details: ECE in vitro, cited from earlier work
[3] = test system: pressor response of big ET; details: cited from earlier work
[4] = test system: vasoconstrictor effects evoked by big ET-1; details: anaesthetized pigs; cited from earlier work
[5] = test system: pressor response of big ET-1; details: ganglion-blocked anesthetized rats; cited from earlier work
[6] = test system: effects of big ET-1 in the microvasculature; details: anesthetized hamsters; cited from earlier work
[7] = test system: lethality induced by big ET-1; details: in vivo; cited from earlier work
[8] = test system: effects of intracisternal big ET-1; details: anesthetized dogs; cited from earlier work
[9] = test system: hemodynamic actions of big ET-1; details: rat brain; cited from earlier work
[10] = test system: pulmonary vascular resistance; details: young piglets; cited from earlier work
[11] = test system: isolated rat hearts; details: cited from earlier work; for preischemic increase in coronary perfusion pressure induced by big ET-1 and its preischemic effect: phosphoramidon (IC50 =100 μM), BQ-123 0.3 μM; for time to contracture in globally ischemic rat hearts: 30 pMol ET-1 or 10 nMol big ET-1 pretreatment; for IC50: isolated rat hearts, read-out: IC50, reduction of coronary flow
[12] = test system: infarct size; details: IV, 24 hour postischemia; cited from earlier work
[13] = test system: vascular strips; details: cited from earlier work
[14] = in vivo; cited from earlier work
[15] = test system: endothelin; details: rats; cited from earlier work
[16] = test system: SHR; details: IV infusion; cited from earlier work
[17] = test system: gastric mucosa; details: 50 to 500 pmol/kg into the left gastric artery; cited from earlier work
[18] = test system: ET receptor; details: allergic sheep; cited from earlier work
[19] = test system: ETA; details: endotoxic shock, mouse; cited from earlier work

## COc1cc(C(=O)O)nc(-c2csc(N)n2)c1OC [Example 4, 6-(2-Amino-thiazol-4-yl)-4,5-dimethoxy-pyridine-2-carboxylic acid]
[1]
  IC50: 1000 to 5000 nM

## CC(C)C[C@H](NP(=O)(O)O[C@@H]1O[C@@H](C)[C@H](O)[C@@H](O)[C@H]1O)C(=O)N[C@@H](Cc1c[nH]c2ccccc12)C(=O)O [phosphoramidon]
[2]
  IC50: ~1000 nM
[2]; listed as Phosphoramidon
  IC50: 1000 nM
[3]; in all cases (studies cited in b8)
  inhibition of effects of ET-1 (versus big ET-1): inhibited the effects of big ET-1 and not ET-1
[3]; micromolar concentrations, in vitro and in vivo
  block of the pressor response of big ET: block the pressor response of big ET both in vitro and in vivo
[4]
  plasma ET-1 level: did not have any effect on the plasma ET-1 level
  vasoconstrictor effects evoked by intravenous injections of big ET-1: inhibit vasoconstrictor effects evoked by intravenous injections of big ET-1
[5]
  pressor response of big ET-1: blocked by phosphoramidon in a dose-dependent manner
[6]
  effects of big ET-1 in the microvasculature: inhibit the effects of big ET-1 in the microvasculature of anesthetized hamsters
[7]
  lethality induced by intravenous infusion of big ET-1: suppress the lethality induced by the intravenous infusion of big ET-1
[8]
  decreased basilar artery caliber and elevated systemic arterial pressure by intracisternal big ET-1: These effects were blocked by phosphoramidon
[9]
  inhibition of hemodynamic actions of big ET-1: phosphoramidon sensitive inhibition of hemodynamic actions of big ET-1 in rat brain
[10]
  elevated pulmonary vascular resistance after cardiopulmonary bypass: reduce elevated pulmonary vascular resistance after cardiopulmonary bypass
[11]
  preischemic increase in coronary perfusion pressure induced by big ET-1 and its preischemic effect: abolished the preischemic increase in coronary perfusion pressure induced by big ET-1 as well as its preischemic effect
[12]
  infarct size: significantly reduce infarct size 24 hour postischemia

## CNc1nc(-c2nc(C(=O)O)cc(OC)c2OC)cs1 [Example 5, 6-(2-N-Methylamino-thiazol-4-yl)-4,5-dimethoxy-pyridine-2-carboxylic acid]
[1]
  IC50: 1000 to 5000 nM

## COc1cc(C(=O)O)nc(-c2csc(C)n2)c1OC [Example 2, 6-(2-Methyl-thiazol-4-yl)-4,5-dimethoxy-pyridine-2-carboxylic acid]
[1]
  IC50: 1900 nM

## COc1cc(C(=O)O)nc(-c2cscn2)c1OC [Example 6, 6-(Thiazol-4-yl)-4,5-dimethoxy-pyridine-2-carboxylic acid]
[1]
  IC50: 5000 to 10000 nM

## Big ET: 38 (human) or 39 (porcine) amino acid peptide known as big endothelin or proendothelin (CSCSSLMDKECVYFCHLDIIWVNTPEHVVPYGLGSPRS; ends and bridges not checked; cysteine pairing not given here; UniProt P05305 53-90, looked up)
[13]
  potency relative to ET-1 in inducing contractile activity: 1%
[14]
  potency relative to ET-1 at raising blood pressure: equally potent in vivo at raising blood pressure
[11]
  time to contracture in globally ischemic rat hearts: significantly reduced the time to contracture
  IC50: 2 nM

## COc1cc(C(=O)O)nc(-c2csc(CCCCCC(C)O)n2)c1OC (stereo not drawn) [Example 1, 6-[2-(6-Hydroxy-heptyl)-thiazol-4-yl]-4,5-dimethoxy-pyridine-2-carboxylic acid]
[1]
  IC50: 1300 nM

## COc1cccc(Oc2c(NS(=O)(=O)c3ccc(C(C)(C)C)cc3)ncnc2OCCO)c1 [RO 46-2005]
[15]
  efficacy in acute renal ischemia and subarachnoid hemorrhage: effective in models of acute renal ischemia and subarachnoid hemorrhage in rats

## CCCCCCCc1nc(-c2nc(C(=O)O)cc(OC)c2OC)cs1 [Example 3, 6-(2-Heptyl-thiazol-4-yl)-4,5-dimethoxy-pyridine-2-carboxylic acid]
[1]
  IC50: 1300 nM

## O=P(O)(O)CNC(Cc1ccc(-c2ccccc2)cc1)c1nn[nH]n1 (stereo not drawn) [CGS 26303]
[16]
  antihypertensive responses in the SHR: effective at lowering the antihypertensive responses in the SHR

## ET-1: a potent vasoconstrictor, is a 21 amino acid bicyclic peptide
[17]
  gastric mucosal hemorrhagic change: induced gastric mucosal hemorrhagic change in a dose-dependent manner
  tissue type plasminogen activator release and platelet activating formation: increased the tissue type plasminogen activator release and platelet activating formation
[11]
  time to contracture in globally ischemic rat hearts: significantly reduced the time to contracture
  IC50: 0.012 nM

## CC(C)C[C@@H]1NC(=O)[C@@H](C(C)C)NC(=O)[C@@H]2CCCN2C(=O)[C@@H](CC(=O)O)NC(=O)[C@@H](Cc2c[nH]c3ccccc23)NC1=O [BQ-123] (cyclo(L[dW][dD]P[dV]))
[18]
  ET-1-induced bronchoconstriction and tracheal smooth muscle contraction: block ET-1-induced bronchoconstriction and tracheal smooth muscle contraction in allergic sheep
[19]
  survival rate: significantly increased the survival rate in this model
[11]
  preischemic increase in coronary perfusion pressure induced by big ET-1 and its preischemic effect: abolished the preischemic increase in coronary perfusion pressure induced by big ET-1 as well as its preischemic effect

Reference: patent US5891892A, “Small molecule biaryl compounds as inhibitors of endothelin converting enzyme” (Warner-Lambert Company, priority 1997, dated 1999)
